Measured values from US20080200403A1, “9A-Carbamoyl and Thiocarbamoyl Azalides with Anti-Inflammatory Activity” (GLAXOSMITHKLINE, priority 2005, published 2008).
Where two headings read alike, the source gives them in different places.

How the values were obtained:
[1] = tested on: human peripheral blood mononuclear cells (PBMC); assay: Human T-cell proliferation in vitro (3H-thymidine incorporation); assay type: cell-based
Method: Influence of substances at two different concentrations (50 μM and 10 μM) on cell proliferation of human peripheral blood mononuclear cells (PBMC) was assessed.
Heparinized peripheral blood was obtained from healthy donors, and PBMC were isolated by Histopaque 1077 (Sigma, USA) density centrifugation at 400×g for 30 minutes. 5×10^4 cells/well were cultured for 3 days in the RPMI medium as described above, in the presence (positive control) or absence (negative control) of stimulators [PHA (2.5 μg/mL) (Sigma, USA), or both PMA (10 ng/mL) (Sigma, USA) and ionomycin (500 ng/mL) (Calbiochem, USA)], and in the presence of the test compounds, at 37° C. in an atmosphere of 5% CO2 and 90% humidity. The cells were pulsed with 1 μCi of ^3H-thymidine (Amersham, USA) per well during the last 18 h of the culture, and were harvested on the 96-well filter (Packard Bioscience, USA) using a multiple cell harvester (Packard, USA). The incorporation of ^3H-thymidine in activated cells were measured using TopCount NXT (Packard, USA).
Inhibition (as percentage) was calculated using the following formula: % inhibition=(1−(^3H)thymidine incorporation expressed in counts per minute (cpm) in sample/(^3H)thymidine incorporation expressed in cpm in positive control)×100
where positive control refers to stimulated samples, not treated with substances.

IL-8 = assay: Inhibition of IL-8 production by stimulated human peripheral blood leukocytes in vitro; assay type: cell-based; conditions: PBL
Method: (§1) Test substances used in in vitro experiments were dissolved in dimethyl sulfoxide (DMSO) (Kemika, Croatia) at concentrations of 50 mM and 10 mM, and were further diluted to final concentrations of 50 μM and 10 μM in 1 mL Dulbecco's modified Eagle medium (DMEM) supplemented with 1% heat inactivated fetal bovine serum (FBS), 1% L-glutamine, 50 U/ml penicillin, 50 μg/ml streptomycin and 2.5 μg/mL Fungizone (amphotericin B). Media and all media supplements were purchased from Gibco, Australia, except the FBS was purchased from Sigma, USA.
(§2) Peripheral blood leukocytes (PBL) were obtained from venous blood of healthy volunteers by sedimentation on 2% dextran T-500 (Amersham Biosciences, USA) and subsequent centrifugations of leukocyte rich plasma.
(§3) Peripheral blood leukocytes (PBL), isolated as described above, were seeded in a 48-well plate at a concentration of 3 to 5×10^6 cell per well in culture medium consisting of RPMI 1640 medium (Institute of Immunology, Croatia) supplemented with 10% heat-inactivated fetal calf serum (FCS, Biowhittaker, USA), 100 U/ml penicillin (Gibco, Australia), 100 μg/ml streptomycin (Gibco, Australia) and 2 mM L-glutamine (Gibco, Australia), and preincubated with the test compounds for 2 h at 37° C., in an atmosphere of 5% CO2, and 90% humidity. Then, stimuli (Sigma, USA) were added to a final concentration of 2 μg/mL lipopolysaccharide (LPS), 1 μg/mL phorbol 12-myristate 13-acetate (PMA) or 120 μg/mL zymosan. Samples were incubated overnight under conditions described above. At the end of incubation, the supernatants were transferred to eppendorf tubes and centrifuged for 10 min at 1500×g. Concentrations of human TNF-α, IL-1β, IL-6 and IL-8 were determined in cell supernatants by sandwich ELISA, using capture and detection antibodies (R&D Systems, Minneapolis, Minn.) according to the manufacturer's recommendations.
(§4) Inhibition (as percentage) was calculated using the following formula: % inhibition=(1−concentration of cytokines in sample/concentration of cytokines in positive control)×100. The positive control refers to stimulated samples, not treated with substances.

human granulocytes = assay: Oxidative burst inhibition assay on granulocytes (luminol); assay type: cell-based; conditions: for inhibition at 12.5 µM / inhibition at 50 µM: Homo sapiens
Method: (§5) Granulocytes were obtained from heparinized whole blood using density gradient centrifugation. Erythrocytes were sedimented on 3% dextran T-500 (Amersham Pharmacia Biotech AB, Uppsala, Sweden). Leukocytes were centrifuged on Ficoll (Amersham Pharmacia Biotech AB, Uppsala, Sweden) for 35 min at 600 g at 20° C. The pellet of granulocytes was cleared from remaining erythrocytes by a brief hypotonic lysis.
The effect of compounds on oxidative burst was investigated in vitro with oxidative burst assay in human granulocytes, isolated as described above. Assay was done in 96 well plate. Blood was obtained from healthy volunteers (Transfusion Center, Croatia) and human granulocytes were isolated by dextran sedimentation and ficoll extraction method, as described above. In each well 50000 isolated granulocytes were suspended in 100 μL of DMEM. Final concentrations of the tested compounds were 50 and 12.5 μM. Than, 50 μL of luminol (c=0.25 mg/mL) was added. Luminol as a detector of oxidative burst react with superoxide and light is produced as one of the reaction products. Subsequently, 50 μL of stimuli, phorbol-12-myristate acetate (PMA) (c=33 ng/mL) or Zymosan (c=120 μg/mL), were added.

IL-6 = assay: Inhibition of IL-6 production by stimulated human peripheral blood leukocytes in vitro; assay type: cell-based; conditions: PBL
Method: as §1, §2, §3, §4

TNF-α = assay: Inhibition of TNF-α production by stimulated human peripheral blood leukocytes in vitro; assay type: cell-based; conditions: PBL
Method: as §1, §2, §3, §4

IL-1α = assay: Inhibition of IL-1 production by stimulated human peripheral blood leukocytes in vitro; assay type: cell-based; conditions: PBL
granulocytes = assay: Inhibition of degranulation of granulocytes (elastase release); assay type: cell-based, human; conditions: Homo sapiens, compound 50 μM, read-out: Percentage of inhibition of degranulation of granulocytes
Method: as §5
1×10^6 granulocytes, isolated as described above, were resuspended in RPMI-1640 medium (Institute of Immunology, Croatia), and were incubated with 10 or 50 μM of test compound together with cytochalasine B (5 μg/mL) for 2 h at 37° C. Degranulation then was induced by the addition of 0.1 μM fMLP (Sigma, USA) or 0.5 μM A23187 (Calbiochem, USA). The activity of free neutrophil elastase was determined with a chromogenic substrate specific for human neutrophil elastase, such as n-methoxysuccinyl-1-alanyl-1-alanyl-1-prolyl-lvalyl-p-niytoanlide (Sigma Chemical Company, St Louis, Mo., USA) Elastase activity, as a marker of primary granules, was assessed in supernatant using a spectrophotometer at an absorbance of 405 nm. Results are expressed as the percent of inhibition of degranulation in unstimulated cells, and in stimulated cells treated with fMLP or A23187.

[2] = zymosan stimulated, compound 10 μM
[3] = zymosan stimulated, compound 50 μM

CCC1OC(=O)C(C)C(OC2CC(C)(OC)C(O)C(C)O2)C(C)C(OC2OC(C)CC(N(C)C)C2O)C(C)(O)CC(C)CN(C(=S)Nc2ccc(Cl)cc2)C(C)C(O)C1(C)O (centres unmarked) [Compound 2]
Percentage of inhibition of proliferation of stimulated PBMC ([1]; PHA stimulated, compound 10 μM): 6% | Percentage of inhibition of proliferation of stimulated PBMC ([1]; PHA stimulated, compound 50 μM): 97% | Percentage of inhibition of proliferation of stimulated PBMC ([1]; PMA + ionomycin stimulated, compound 10 μM): 35% | Percentage of inhibition of proliferation of stimulated PBMC ([1]; PMA + ionomycin stimulated, compound 50 μM): 99% | Percentage of inhibition of IL-8 production (IL-8; LPS stimulated, compound 10 μM): 79% | Percentage of inhibition of IL-8 production (IL-8; LPS stimulated, compound 50 μM): 88% | Percentage of inhibition of IL-8 production (IL-8; PMA stimulated, compound 10 μM): 27% | Percentage of inhibition of IL-8 production (IL-8; PMA stimulated, compound 50 μM): 58% | Percentage of inhibition of IL-8 production (IL-8; [2]): 61% | Percentage of inhibition of IL-8 production (IL-8; [3]): 51% | % inhibition of Oxidative burst PMA (human granulocytes; PMA stimulated granulocytes, compound 12.5 μM): 19% | % inhibition of Oxidative burst PMA (human granulocytes; PMA stimulated granulocytes, compound 50 μM): 82% | % inhibition of Oxidative burst Zymosan (human granulocytes; Zymosan stimulated granulocytes, compound 12.5 μM): 24% | % inhibition of Oxidative burst Zymosan (human granulocytes; Zymosan stimulated granulocytes, compound 50 μM): 98% | Percentage of inhibition of IL-6 production (IL-6; LPS stimulated, compound 10 μM): 75% | Percentage of inhibition of IL-6 production (IL-6; LPS stimulated, compound 50 μM): 100% | Percentage of inhibition of IL-6 production (IL-6; PMA stimulated, compound 10 μM): 49% | Percentage of inhibition of IL-6 production (IL-6; PMA stimulated, compound 50 μM): 100% | Percentage of inhibition of IL-6 production (IL-6; [2]): 90% | Percentage of inhibition of IL-6 production (IL-6; [3]): 100% | Percentage of inhibition of TNF-α production (TNF-α; LPS stimulated, compound 10 μM): 37% | Percentage of inhibition of TNF-α production (TNF-α; LPS stimulated, compound 50 μM): 100% | Percentage of inhibition of TNF-α production (TNF-α; PMA stimulated, compound 10 μM): 60% | Percentage of inhibition of TNF-α production (TNF-α; PMA stimulated, compound 50 μM): 99% | Percentage of inhibition of TNF-α production (TNF-α; [2]): 78% | Percentage of inhibition of TNF-α production (TNF-α; [3]): 98% | Percentage of inhibition of IL-1α production (IL-1α; LPS stimulated, compound 10 μM): 77% | Percentage of inhibition of IL-1α production (IL-1α; LPS stimulated, compound 50 μM): 98% | Percentage of inhibition of IL-1α production (IL-1α; PMA stimulated, compound 10 μM): 18% | Percentage of inhibition of IL-1α production (IL-1α; PMA stimulated, compound 50 μM): 97% | Percentage of inhibition of IL-1α production (IL-1α; [2]): 92% | Percentage of inhibition of IL-1α production (IL-1α; [3]): 98%

CC[C@H]1OC(=O)[C@H](C)[C@@H](O[C@H]2C[C@@](C)(OC)[C@@H](O)[C@H](C)O2)[C@H](C)[C@@H](O[C@@H]2O[C@H](C)C[C@H](N(C)C)[C@H]2O)[C@](C)(O)C[C@@H](C)C(=O)[C@H](C)[C@@H](O)[C@]1(C)O [Erythromycin, erythromycin]
inhibition at 50 µM (granulocytes; A23187 0.5 μM stimulated): 0% | inhibition at 50 µM (granulocytes; fMLP 0.1 μM stimulated): 23% | inhibition at 12.5 µM (human granulocytes; PMA stimulated granulocytes, compound 12.5 μM, read-out: % inhibition of Oxidative burst PMA): 0% | inhibition at 50 µM (human granulocytes; PMA stimulated granulocytes, compound 50 μM, read-out: % inhibition of Oxidative burst PMA): 0% | inhibition at 12.5 µM (human granulocytes; Zymosan stimulated granulocytes, compound 12.5 μM, read-out: % inhibition of Oxidative burst Zymosan): 6% | inhibition at 50 µM (human granulocytes; Zymosan stimulated granulocytes, compound 50 μM, read-out: % inhibition of Oxidative burst Zymosan): 41%
